Our source for the IC50 values is patent US9216964B2, “Hedgehog pathway modulators” (Novartis AG, priority 2008, dated 2015).

The experiment deals with hedgehog signaling pathway. The experiment can be described thus: Gli-Luc Reporter Assay for Hh Pathway Inhibition (TMHh-12 cells, pTA-8×Gli-Luc reporter). It counts as cell-based, Mouse. In outline: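 Mouse TM3 cells stably carrying an 8×Gli-firefly luciferase reporter, in 2% FBS medium; pathway activated with recombinant mouse Shh (8 μg/mL) or Smo agonist, compounds added at varying concentrations for 48 h. Luminescence read; IC50 at 50% signal reduction. Toxicity checked in TM3 cells (CellTiter-Glo) or constitutive-luciferase TM3-Luc cells.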

[1] abbreviates: Mus musculus, TMHh12, enzymatic and cellular assays for the inhibition of hedgehog signaling pathways, read-out: IC50 Ranges.
The mark [2] stands for this setting: enzymatic and cellular assays for the inhibition of hedgehog signaling pathways, read-out: IC50 Ranges.

Read-outs that look alike come from different tables or passages of the source.

Broadly, the IC50 is the concentration that gives 50% inhibition.

In the case of `Cc1ccc(Nc2cccc3c2CCN(S(C)(=O)=O)C3)cc1-c1ccc(N(C)C)nn1` [Compound 254], the 50% inhibitory concentration (IC50) under setting [1] lay within 1 to 10 nM.

As to `COc1cncc(-c2cc(Nc3cccc4c3CCN(S(C)(=O)=O)C4)ccc2C)n1` [Compound 255], the IC50 under setting [1] lay within 100 to 1000 nM.

For `COc1ccc(-c2cc(Nc3cccc4c3CCN(C3CCS(=O)(=O)C3)C4)ccc2C)nn1` (stereo not shown) [Compound 256], the IC50 under setting [1] lay within 0.001 to 1 nM.

On to `Cc1ccc(Nc2cccc3c2CCN(CCS(C)(=O)=O)C3)cc1-c1ccc(Cl)cn1` [Compound 257], for which the IC50 under setting [1] fell in the range of 0.001 to 1 nM.

On to `COc1ccc(-c2cc(Nc3cccc4c3CCN(CCS(C)(=O)=O)C4)ccc2C)nn1` [Compound 258], for which the IC50 under setting [1] lay within 1 to 10 nM.

Regarding `Cc1ccc(Nc2cccc3c2CCN(CCS(C)(=O)=O)C3)cc1-c1ccc(C(F)(F)F)cn1` [Compound 259], under setting [1], the IC50 was 1 to 10 nM.

Take `Cc1ccc(Nc2cccc3c2CCN(CCS(C)(=O)=O)C3)cc1-c1ncccc1F` [Compound 260]: the IC50 under setting [1] fell in the range of 1 to 10 nM.

Turning to `CCS(=O)(=O)CCN1CCc2c(cccc2Nc2ccc(C)c(-c3ccc(C)cn3)c2)C1` [Compound 261], the IC50 under setting [1] was in the range of 0.001 to 1 nM.

Turning to `Cc1ccc(Nc2cccc3c2CCN(CCS(C)(=O)=O)C3)cc1-c1ccccn1` [Compound 262], the IC50 under setting [1] is 1 to 10 nM.

On to `Cc1cnc(-c2cc(Nc3cccc4c3CCN(CCS(C)(=O)=O)C4)ccc2C)nc1` [Compound 263], for which the IC50 under setting [1] fell in the range of 100 to 1000 nM.

For the molecule `COc1cnc(-c2cc(Nc3cccc4c3CCN(CCS(C)(=O)=O)C4)ccc2C)cn1` [Compound 264], the IC50 under setting [1] is 1 to 10 nM.

For the molecule `Cc1ccc(Nc2cccc3c2CCN(C2CCS(=O)(=O)C2)C3)cc1-c1ccccn1` (stereo not shown) [Compound 265], the IC50 under setting [1] is 0.001 to 1 nM.

With `COc1cnc(-c2cc(Nc3cccc4c3CCN(C3CCS(=O)(=O)C3)C4)ccc2C)cn1` (stereo not shown) [Compound 266], the IC50 under setting [1] lay in the range of 1 to 10 nM.

As for `Cc1cnc(-c2cc(Nc3cccc4c3CCN(C3CCS(=O)(=O)C3)C4)ccc2C)nc1` (stereo not shown) [Compound 267], under setting [1], the IC50 is 10 to 100 nM.

Take `Cc1ccc(Nc2cccc3c2CCN(C2CCS(=O)(=O)C2)C3)cc1-c1ncccc1F` (stereo not shown) [Compound 268]: the IC50 under setting [1] lay within 0.001 to 1 nM.

For `Cc1ccc(Nc2cccc3c2CCN(C2CCS(=O)(=O)CC2)C3)cc1-c1ncccc1F` [Compound 269], the IC50 under setting [1] is 0.001 to 1 nM.

With `COc1cnnc(-c2cc(Nc3cccc4c3CCN(S(C)(=O)=O)C4)ccc2C)c1` [Compound 270], the IC50 under setting [1] was in the range of 10 to 100 nM.

For `CCOc1ccc(-c2cc(Nc3cccc4c3CCN(S(C)(=O)=O)C4)ccc2C)nn1` [Compound 271], the IC50 under setting [1] was in the range of 0.001 to 1 nM.

Take `Cc1ccc(Nc2cccc3c2CCN(S(C)(=O)=O)C3)cc1-c1ncc(F)cc1F` [Compound 272]: the IC50 under setting [1] was 1 to 10 nM.

Regarding `Cc1ccc(-c2nc(Nc3cccc4c3CCN(S(C)(=O)=O)C4)ccc2Cl)nc1` [Compound 273], the IC50 under setting [1] was in the range of 0.001 to 1 nM.

With `Cc1ccc(-c2nc(Nc3cccc4c3CCN(S(C)(=O)=O)C4)ccc2C)nc1` [Compound 274], the IC50 under setting [1] fell in the range of 0.001 to 1 nM.

On to `Cc1ccc(Nc2cccc3c2CCN(C2CS(=O)(=O)C2)C3)cc1-c1ncccc1F` [Compound 275], for which the IC50 under setting [1] was in the range of 1 to 10 nM.

For `COc1ccc(-c2cc(Nc3cccc4c3CCN(C3CS(=O)(=O)C3)C4)ccc2C)nn1` [Compound 276], the 50% inhibitory concentration (IC50) is 9.8 nM (Mus musculus, TMHh12, Ag1.5 1 nM, read-out: Hedgehog Inhibition IC50 (nM) (Ag1.5 1 nM)) and 1 to 10 nM under setting [1].

As for `Cc1ccc(-c2cc(Nc3ncnc4c3CCN(C3CCS(=O)(=O)CC3)C4)ccc2C)nc1` [Compound 277], the IC50 under setting [1] was 10 to 100 nM.

With `Cc1ccc(-c2nc(Nc3cccc4c3CCN(CCS(C)(=O)=O)C4)ccc2Cl)nc1` [Compound 278], under setting [1], the IC50 lay in the range of 1 to 10 nM.

With `Cc1ccc(-c2cc(Nc3cccc4c3CCN([C@@H]3CCS(=O)(=O)C3)C4)ccc2C)nc1` [Compound 279], the IC50 under setting [1] lay in the range of 0.001 to 1 nM.

On to `Cc1ccc(-c2cc(Nc3cccc4c3CCN([C@H]3CCS(=O)(=O)C3)C4)ccc2C)nc1` [Compound 280], for which the IC50 under setting [1] fell in the range of 0.001 to 1 nM.

For the molecule `CCS(=O)(=O)CCN1CCc2c(cccc2Nc2ccc(C)c(-c3ccc(F)cn3)c2)C1` [Compound 281], the IC50 under setting [1] was 1 to 10 nM.

As to `CCS(=O)(=O)CCN1CCc2c(cccc2Nc2ccc(C)c(-c3ccc(OC)nn3)c2)C1` [Compound 282], the IC50 under setting [1] lay in the range of 1 to 10 nM.

For `CCS(=O)(=O)CCN1CCc2c(cccc2Nc2ccc(C)c(-c3ncccc3F)c2)C1` [Compound 283], the 50% inhibitory concentration (IC50) under setting [1] was in the range of 1 to 10 nM.

Consider `Cc1ccc(-c2nc(Nc3cccc4c3CCN(C3CS(=O)(=O)C3)C4)ccc2C)nc1` [Compound 285], for which the IC50 under setting [1] lay in the range of 10 to 100 nM.

For the molecule `Cc1ccc(Nc2cccc3c2CCN([C@H]2CCS(=O)(=O)C2)C3)cc1-c1ncccc1F` [Compound 286], the IC50 under setting [1] is 0.001 to 1 nM.

On to `Cc1ccc(Nc2cccc3c2CCN([C@@H]2CCS(=O)(=O)C2)C3)cc1-c1ncccc1F` [Compound 287], for which the IC50 under setting [2] is 1 to 10 nM.

In the case of `Cc1ccc(-c2cc(Nc3ncnc4c3CCN(C3CS(=O)(=O)C3)C4)ccc2C)nc1` [Compound 288], under setting [1], the IC50 lay in the range of 10 to 100 nM.

With `Cc1ccc(Nc2cccc3c2CCN(S(=O)(=O)CCN(C)C)C3)cc1-c1ncccc1F` [Compound 289], the IC50 under setting [1] lay within 0.001 to 1 nM.

With `Cc1ccc(Nc2cccc3c2CCN(S(C)(=O)=O)C3)cc1-c1ncc(Cl)cc1F` [Compound 290], the IC50 under setting [1] is 0.001 to 1 nM.

As for `Cc1ccc(Nc2cccc3c2CCN(S(C)(=O)=O)C3)cc1-c1ccc(N(C)C)cn1` [Compound 291], the IC50 under setting [1] fell in the range of 0.001 to 1 nM.

`Cc1ccc(-c2cc(Nc3ncnc4c3CCN(S(=O)(=O)C(C)C)C4)ccc2C)nc1` [Compound 292]: the IC50 under setting [1] was 1 to 10 nM.

As to `CCS(=O)(=O)N1CCc2c(ncnc2Nc2ccc(C)c(-c3ccc(C)cn3)c2)C1` [Compound 293], the IC50 under setting [1] fell in the range of 0.001 to 1 nM.

`CCOc1ccc(-c2cc(Nc3cccc4c3CCN(CCS(C)(=O)=O)C4)ccc2C)nn1` [Compound 294]: the IC50 under setting [1] is 1 to 10 nM.

Take `CCOc1ccc(-c2cc(Nc3cccc4c3CCN(C3CS(=O)(=O)C3)C4)ccc2C)nn1` [Compound 295]: under setting [1], the IC50 was in the range of 1 to 10 nM.

Turning to `CCOc1ccc(-c2cc(Nc3cccc4c3CCN(C3CCS(=O)(=O)C3)C4)ccc2C)nn1` (stereo not shown) [Compound 296], the half-inhibitory concentration (IC50) under setting [1] was in the range of 1 to 10 nM.

Regarding `CCOc1ccc(-c2cc(Nc3cccc4c3CCN(CCS(=O)(=O)CC)C4)ccc2C)nn1` [Compound 297], the IC50 under setting [1] is 1 to 10 nM.

`Cc1ccc(Nc2ncnc3c2CCN(S(C)(=O)=O)C3)cc1-c1ccc(F)cn1` [Compound 298]: under setting [1], the IC50 lay in the range of 10 to 100 nM.

For `CCS(=O)(=O)N1CCc2c(ncnc2Nc2ccc(C)c(-c3ccc(F)cn3)c2)C1` [Compound 299], under setting [1], the IC50 is 0.001 to 1 nM.

Take `Cc1ccc(Nc2ncnc3c2CCN(S(=O)(=O)C(C)C)C3)cc1-c1ccc(F)cn1` [Compound 300]: the IC50 under setting [1] fell in the range of 0.001 to 1 nM.

Take `Cc1ccc(Nc2ncnc3c2CCN(S(C)(=O)=O)C3)cc1C(=O)Nc1ccccc1` [Compound 301]: the IC50 under setting [1] lay in the range of 100 to 1000 nM.

`CS(=O)(=O)CCN1CCc2c(cccc2Nc2ccc(Cl)c(-c3ccc(F)cn3)n2)C1` [Compound 302]: the half-maximal inhibitory concentration (IC50) under setting [1] fell in the range of 10 to 100 nM.

With `CS(=O)(=O)N1CCc2c(cccc2Nc2ccc(Cl)c(-c3ccc(F)cn3)n2)C1` [Compound 303], the IC50 under setting [1] was 1 to 10 nM.

`Cc1ccc(Nc2ncnc3c2CCN(C2CS(=O)(=O)C2)C3)cc1-c1cc2ccccc2cn1` [Compound 304]: under setting [1], the IC50 lay within 10 to 100 nM.

As to `Cc1ccc(Nc2ncnc3c2CCN(CCS(C)(=O)=O)C3)cc1-c1cc2ccccc2cn1` [Compound 305], under setting [1], the IC50 lay in the range of 10 to 100 nM.

As to `COc1ccc(-c2cc(Nc3cccc4c3CCN(C3CCS(=O)(=O)CC3)C4)ccc2C)nn1` [Compound 306], under setting [1], the half-inhibitory concentration (IC50) lay within 1 to 10 nM.

Take `Cc1ccc(Nc2ncnc3c2CCN(S(C)(=O)=O)C3)cc1-c1cc2ccccc2cn1` [Compound 307]: the IC50 under setting [1] lay within 0.001 to 1 nM.

Take `CCOc1cnc(-c2cc(Nc3cccc4c3CCN(C3CCS(=O)(=O)C3)C4)ccc2C)cn1` (stereo not shown) [Compound 308]: under setting [1], the IC50 lay in the range of 1 to 10 nM.

With `Cc1ccc(-c2nc(Nc3cccc4c3CCN(CCS(C)(=O)=O)C4)ccc2C)nc1` [Compound 309], under setting [1], the concentration for half-maximal inhibition (IC50) was 10 to 100 nM.

Take `CCOc1cnc(-c2cc(Nc3cccc4c3CCN(CCS(C)(=O)=O)C4)ccc2C)cn1` [Compound 310]: the IC50 under setting [1] lay within 1 to 10 nM.

In the case of `Cc1ccc(Nc2cccc3c2CCN(CCS(C)(=O)=O)C3)nc1-c1ccccn1` [Compound 311], the IC50 under setting [1] lay in the range of 10 to 100 nM.

With `Cc1ccc(Nc2cccc3c2CCN(S(C)(=O)=O)C3)nc1-c1ccccn1` [Compound 312], the IC50 under setting [1] was in the range of 1 to 10 nM.

As to `CCOc1cnc(-c2cc(Nc3cccc4c3CCN(C3CS(=O)(=O)C3)C4)ccc2C)cn1` [Compound 313], the IC50 under setting [1] was 1 to 10 nM.

In the case of `CCOc1cnc(-c2cc(Nc3cccc4c3CCN(S(C)(=O)=O)C4)ccc2C)cn1` [Compound 314], under setting [1], the IC50 fell in the range of 0.001 to 1 nM.

On to `Cc1ccc(Nc2cccc3c2CCN(CCS(C)(=O)=O)C3)cc1-c1cc2ccccc2cn1` [Compound 315], for which, under setting [1], the IC50 was in the range of 0.001 to 1 nM.

For the molecule `Cc1ccc(Nc2cccc3c2CCN(C2CS(=O)(=O)C2)C3)cc1-c1cc2ccccc2cn1` [Compound 316], under setting [1], the IC50 was 0.001 to 1 nM.

As for `Cc1ccc(-c2nc(Nc3cccc4c3CCN(C3CS(=O)(=O)C3)C4)ccc2Cl)nc1` [Compound 317], the IC50 under setting [1] is 0.001 to 1 nM.

In the case of `CCS(=O)(=O)N1CCc2c(cccc2Nc2ccc(C)c(-c3ccc(OC)nn3)n2)C1` [Compound 318], the IC50 under setting [1] lay in the range of 1 to 10 nM.

Take `COc1ccc(-c2nc(Nc3cccc4c3CCN(S(=O)(=O)C(C)C)C4)ccc2C)nn1` [Compound 319]: under setting [1], the IC50 was 1 to 10 nM.

For `COc1ccc(-c2cc(Nc3cccc4c3CCN([C@@H]3CCS(=O)(=O)C3)C4)ccc2C)nn1` [Compound 321], the IC50 under setting [1] lay within 1 to 10 nM.

As for `COc1ccc(-c2cc(Nc3cccc4c3CCN([C@H]3CCS(=O)(=O)C3)C4)ccc2C)nn1` [Compound 322], the IC50 under setting [1] fell in the range of 1 to 10 nM.

On to `CCOc1ccc(-c2cc(Nc3cccc4c3CCN(C3CCS(=O)(=O)C3)C4)ccc2C)nn1` (stereo not shown) [Compound 323], for which, under setting [2], the IC50 was 1 to 10 nM.

On to `Cc1ccc(Nc2cccc3c2CCN(C2CCS(=O)(=O)C2)C3)cc1-c1cc2ccccc2cn1` (stereo not shown) [Compound 324], for which the IC50 under setting [1] lay in the range of 0.001 to 1 nM.
